Assay results as given in US20250032465A1, “METHODS OF TREATING CNS DISORDERS” (HANGZHOU HIGHLIGHTLL PHARMACEUTICAL CO., LTD, priority 2021, published 2025).
Where two headings read alike, the source gives them in different places.

Tests used:
JAK1 [1] = biological target: T1, JAK1 (Homo sapiens, UniProt P23458); assay: JAK1 biochemical test (33P-ATP filter binding, Reaction Biology); settings: read-out: Inhibition of JAK1 (IC50)
T1 construct: purchased Reaction Biology Corp, Malvern, PA (contract testing)
T1 sequence (P23458 whole entry): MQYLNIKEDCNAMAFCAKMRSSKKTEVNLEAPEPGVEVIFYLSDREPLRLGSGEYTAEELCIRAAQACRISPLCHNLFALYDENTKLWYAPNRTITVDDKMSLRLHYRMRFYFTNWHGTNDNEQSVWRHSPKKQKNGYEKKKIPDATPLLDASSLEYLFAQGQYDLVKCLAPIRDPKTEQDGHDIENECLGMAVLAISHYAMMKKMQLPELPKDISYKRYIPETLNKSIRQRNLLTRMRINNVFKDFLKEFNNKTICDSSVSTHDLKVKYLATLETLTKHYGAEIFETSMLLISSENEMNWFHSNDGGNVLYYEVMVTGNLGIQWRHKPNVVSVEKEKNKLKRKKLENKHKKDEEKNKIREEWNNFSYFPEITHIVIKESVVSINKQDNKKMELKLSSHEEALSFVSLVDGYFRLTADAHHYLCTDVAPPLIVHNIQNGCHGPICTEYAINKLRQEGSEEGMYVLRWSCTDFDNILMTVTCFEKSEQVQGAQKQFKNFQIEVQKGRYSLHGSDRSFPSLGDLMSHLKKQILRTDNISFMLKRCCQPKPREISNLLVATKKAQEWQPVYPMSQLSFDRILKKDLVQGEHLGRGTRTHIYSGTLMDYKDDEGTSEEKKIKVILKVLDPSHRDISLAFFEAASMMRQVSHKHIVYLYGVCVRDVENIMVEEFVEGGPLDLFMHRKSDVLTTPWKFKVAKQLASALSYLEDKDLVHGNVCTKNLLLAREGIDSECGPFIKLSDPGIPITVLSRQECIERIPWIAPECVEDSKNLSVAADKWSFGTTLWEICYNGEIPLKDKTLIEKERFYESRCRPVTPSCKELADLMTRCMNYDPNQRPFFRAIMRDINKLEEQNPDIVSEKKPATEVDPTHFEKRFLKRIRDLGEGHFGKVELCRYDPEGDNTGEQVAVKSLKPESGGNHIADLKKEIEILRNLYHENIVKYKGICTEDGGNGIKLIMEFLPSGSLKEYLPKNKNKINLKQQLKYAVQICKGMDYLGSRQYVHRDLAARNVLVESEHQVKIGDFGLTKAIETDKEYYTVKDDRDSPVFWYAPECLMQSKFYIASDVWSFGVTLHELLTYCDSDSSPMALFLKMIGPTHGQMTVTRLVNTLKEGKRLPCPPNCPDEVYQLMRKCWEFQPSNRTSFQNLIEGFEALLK
Protocol: (§1) The tests were conducted by Reaction Biology Corp, Malvern, PA (Anastassiadis et al. Nat Biotechnol. 2011; 29(11):1039-45). The step is briefly described as follows, using the basic reaction buffer: 20 mM Hepes (pH 7.5), 10 mM MgCl2, 1 mM EGTA, 0.02% Brij35, 0.02 mg/ml BSA, 0.1 mM Na3VO4, 2 mM DTT and 1% DMSO. The required cofactor was added to each kinase reaction respectively. Each reaction was performed according to the following reaction steps: 1) Preparing the designated substrate in the newly prepared basic reaction buffer; 2) Transferring the required cofactor to the above matrix solution; 3) Transferring the designated kinase to the substrate solution and mixing well slightly; 4) Transferring a compound of Formula (I) in DMSO to the kinase reaction mixture with Acoustic technique (Echo550; nanoliter range), culturing for 20 minutes at room temperature; 5) Introducing ^33P-ATP (specific activity: 10 μCi/μl) to the reaction mixture to trigger a reaction; 6) Culturing at room temperature and conducting a kinase reaction for 2 hours; 7) Plotting the reaction on P81 ion exchange paper; and 8) Testing the kinase activity with a filter binding assay. The results shown in Table 1 indicate that compounds of Formulae (I)-(III) are potent and selective TYK2/JAK1 inhibitors.

JAK2 = biological target: T2, JAK2 (Homo sapiens, UniProt O60674); assay: JAK2 biochemical test (33P-ATP filter binding, Reaction Biology); settings: read-out: Inhibition of JAK2 (IC50)
T2 construct: purchased Reaction Biology Corp, Malvern, PA (contract testing)
T2 sequence (O60674 whole entry): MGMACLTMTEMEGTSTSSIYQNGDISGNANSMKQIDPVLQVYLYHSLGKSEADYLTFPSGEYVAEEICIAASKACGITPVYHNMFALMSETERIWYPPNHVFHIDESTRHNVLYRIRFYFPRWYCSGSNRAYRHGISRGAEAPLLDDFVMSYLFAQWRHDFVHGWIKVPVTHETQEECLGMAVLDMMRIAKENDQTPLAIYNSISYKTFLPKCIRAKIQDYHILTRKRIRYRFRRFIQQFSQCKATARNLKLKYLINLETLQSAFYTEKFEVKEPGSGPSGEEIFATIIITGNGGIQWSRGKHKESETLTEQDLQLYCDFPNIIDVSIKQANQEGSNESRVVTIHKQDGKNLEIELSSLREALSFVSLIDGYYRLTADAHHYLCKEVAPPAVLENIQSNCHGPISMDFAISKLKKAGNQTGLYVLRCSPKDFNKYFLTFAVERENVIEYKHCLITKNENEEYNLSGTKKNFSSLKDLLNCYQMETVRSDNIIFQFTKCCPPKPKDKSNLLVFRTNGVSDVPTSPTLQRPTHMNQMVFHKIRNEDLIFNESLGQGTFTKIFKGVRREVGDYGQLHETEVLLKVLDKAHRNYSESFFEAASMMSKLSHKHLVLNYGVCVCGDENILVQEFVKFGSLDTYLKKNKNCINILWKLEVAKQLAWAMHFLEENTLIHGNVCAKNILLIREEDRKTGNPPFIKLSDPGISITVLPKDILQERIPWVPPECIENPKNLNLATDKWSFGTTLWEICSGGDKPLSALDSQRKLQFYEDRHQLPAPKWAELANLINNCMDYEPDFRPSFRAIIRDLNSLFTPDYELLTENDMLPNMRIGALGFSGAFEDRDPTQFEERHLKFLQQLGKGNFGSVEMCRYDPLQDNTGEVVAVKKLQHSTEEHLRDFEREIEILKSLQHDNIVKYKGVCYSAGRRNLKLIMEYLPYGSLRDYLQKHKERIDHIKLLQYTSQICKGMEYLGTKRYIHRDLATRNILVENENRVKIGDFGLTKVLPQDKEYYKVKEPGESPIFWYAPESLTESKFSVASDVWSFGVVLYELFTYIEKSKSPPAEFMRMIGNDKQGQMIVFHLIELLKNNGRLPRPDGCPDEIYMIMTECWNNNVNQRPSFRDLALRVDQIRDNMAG
Protocol: as §1

TYK2 [2] = biological target: T3, TYK2 (Homo sapiens, UniProt P29597); assay: TYK2 biochemical test (33P-ATP filter binding, Reaction Biology); settings: read-out: Inhibition of TYK2 (IC50)
T3 construct: purchased Reaction Biology Corp, Malvern, PA (contract testing)
T3 sequence (P29597 whole entry): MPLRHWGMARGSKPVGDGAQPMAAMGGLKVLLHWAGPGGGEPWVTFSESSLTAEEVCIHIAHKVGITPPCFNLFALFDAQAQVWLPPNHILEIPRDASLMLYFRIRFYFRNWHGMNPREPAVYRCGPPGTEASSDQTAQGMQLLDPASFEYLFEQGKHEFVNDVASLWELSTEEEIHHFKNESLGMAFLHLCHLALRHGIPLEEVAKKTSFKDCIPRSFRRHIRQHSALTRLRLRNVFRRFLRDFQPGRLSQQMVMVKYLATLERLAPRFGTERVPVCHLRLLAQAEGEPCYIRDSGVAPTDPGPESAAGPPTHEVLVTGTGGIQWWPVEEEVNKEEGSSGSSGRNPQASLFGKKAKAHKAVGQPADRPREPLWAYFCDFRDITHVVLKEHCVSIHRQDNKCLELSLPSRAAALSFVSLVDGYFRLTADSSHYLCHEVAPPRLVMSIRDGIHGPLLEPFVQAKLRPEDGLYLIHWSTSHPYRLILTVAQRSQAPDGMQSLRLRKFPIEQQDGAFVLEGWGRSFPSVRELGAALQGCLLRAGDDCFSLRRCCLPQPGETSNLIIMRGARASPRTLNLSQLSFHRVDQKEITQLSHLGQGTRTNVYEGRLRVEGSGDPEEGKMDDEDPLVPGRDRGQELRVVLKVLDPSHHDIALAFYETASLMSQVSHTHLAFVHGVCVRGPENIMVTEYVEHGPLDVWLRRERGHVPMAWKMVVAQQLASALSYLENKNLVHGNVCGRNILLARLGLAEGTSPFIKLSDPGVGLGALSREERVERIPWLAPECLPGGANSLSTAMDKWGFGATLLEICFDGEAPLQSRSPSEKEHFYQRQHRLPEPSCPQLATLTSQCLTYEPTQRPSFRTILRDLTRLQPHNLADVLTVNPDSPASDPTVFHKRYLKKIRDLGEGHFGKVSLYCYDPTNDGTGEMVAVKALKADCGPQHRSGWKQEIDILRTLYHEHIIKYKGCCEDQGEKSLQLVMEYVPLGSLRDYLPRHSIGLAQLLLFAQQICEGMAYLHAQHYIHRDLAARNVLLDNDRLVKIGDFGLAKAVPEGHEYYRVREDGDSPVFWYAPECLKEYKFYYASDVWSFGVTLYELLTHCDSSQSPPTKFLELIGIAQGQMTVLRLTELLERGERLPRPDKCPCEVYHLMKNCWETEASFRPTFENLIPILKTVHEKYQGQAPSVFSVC
Protocol: as §1

JAK1 [3] = biological target: T1, JAK1; assay: JAK1 cellular ELISA assay using PBMC cells (IL-6 stimulated STAT3 phosphorylation); format: cell-based; settings: IL-6 100 ng/ml, 25 min
Protocol: This testing was performed to test cellular JAK1 activity using the IL-6 stimulated STAT3 phosphorylation assay in PBMC cells. The testing was performed according to the following procedure: 1) Plate PBMC cells to 96-well plate at density of ˜300,000 cell/well; 2) Add different concentrations of test article to wells, maintain in incubator at 37° C. and 5% CO2 for 1 hour; 3) Add IL-6 (final concentration: 100 ng/ml) to stimulate for 25 min in the above incubator; 4) After stimulation, transfer the suspension to 1.5 mL tube, centrifuge at 200 g for 5 min, collect cells, add 100 μL 1× lysate, lyse on ice for 1 hour; 5) Centrifuge at 4° C. and 12000 rpm for 10 min, take the supernatant and analyze according to instructions of the ELISA kit. In this assay, compounds of Formulae (II) and (III) had IC50<300 nM.

[4] = Brain penetration in rats; format: in vivo; settings: male, rat, 10 mg/kg oral gavage, 8 hour post-dosing
Protocol: This testing was performed to test the ability of compounds to penetrate the blood-brain-barrier in rats. The testing was performed according to the following procedure: 1) For each compound, take 3 male rats with body weight of 217-228 g, formulate compound using 0.5% HPMC/water suspension at concentration of 1 mg/ml; 2) After fasting overnight, administer compound at 10 mg/kg by oral gavage; 3) Take plasma samples at 1, 2, 4, 8 hours post-dosing; 4) At 8 hour post-dosing, also take brain tissues and cerebrospinal fluid (CSF); 5) Analyze compound concentration in plasma, brain tissue, and CSF using LC-MS/MS method.

[5] = Brain penetration in mice; format: in vivo, C57BL/6 mice; settings: male, mouse, 30 mg/kg oral gavage, 4-hour post-dosing
Protocol: This testing was performed to test the ability of compounds to penetrate the blood-brain-barrier in mice. The testing was performed according to the following procedure: 1) for each compound, take 3 male C57BL/6 mice with body weight of 17-18 g, formulate compound using 0.5% HPMC/water suspension at concentration of 3 mg/ml; 2) After fasting overnight, administer compound at 30 mg/kg by oral gavage; 3) Take plasma samples at 1, 2, 4 hours post-dosing; 4) At 4-hour post-dosing, also take brain tissues and cerebrospinal fluid (CSF) fluid; 5) Analyze compound concentration in plasma, brain tissue, and CSF fluid using LC-MS/MS method.

TYK2 [6] = biological target: T3, TYK2; assay: TYK2 cellular ELISA assay using NK92 cells (IL-12 and IL-18 stimulated IFNγ excretion); format: cell-based; settings: IL-12 2 ng/ml, IL-18 5 ng/ml, 24 hours
Protocol: This testing was performed to test cellular TYK2 activity using IL-12 and IL-18 stimulated IFNγ excretion assay in NK92 cells. The testing was performed according to the following procedure: 1) Replace NK92 cell media containing IL-2 with media not containing IL-2, maintain overnight; 2) Plate NK92 cells to 96-well plate at density of ˜150,000 cell/well; 3) Add different concentrations of test article to wells, maintain in incubator at 37° C. and 5% CO2 for 1 hour; 4) Add IL-12 (final concentration: 2 ng/ml) and IL-18 (final concentration: 5 ng/ml) to stimulate for 24 hours in the above incubator; 5) After 24 hours, centrifuge at 2000 rpm for 5 min, take the supernatant and analyze according to instructions of the ELISA kit. In this assay, compounds of Formulae (II) and (III) had IC50<100 nM.

JAK3 = biological target: T4, JAK3 (Homo sapiens, UniProt P52333); assay: JAK3 biochemical test (33P-ATP filter binding, Reaction Biology); settings: read-out: Inhibition of JAK3 (IC50)
T4 construct: purchased Reaction Biology Corp, Malvern, PA (contract testing)
T4 sequence (P52333 1-1124): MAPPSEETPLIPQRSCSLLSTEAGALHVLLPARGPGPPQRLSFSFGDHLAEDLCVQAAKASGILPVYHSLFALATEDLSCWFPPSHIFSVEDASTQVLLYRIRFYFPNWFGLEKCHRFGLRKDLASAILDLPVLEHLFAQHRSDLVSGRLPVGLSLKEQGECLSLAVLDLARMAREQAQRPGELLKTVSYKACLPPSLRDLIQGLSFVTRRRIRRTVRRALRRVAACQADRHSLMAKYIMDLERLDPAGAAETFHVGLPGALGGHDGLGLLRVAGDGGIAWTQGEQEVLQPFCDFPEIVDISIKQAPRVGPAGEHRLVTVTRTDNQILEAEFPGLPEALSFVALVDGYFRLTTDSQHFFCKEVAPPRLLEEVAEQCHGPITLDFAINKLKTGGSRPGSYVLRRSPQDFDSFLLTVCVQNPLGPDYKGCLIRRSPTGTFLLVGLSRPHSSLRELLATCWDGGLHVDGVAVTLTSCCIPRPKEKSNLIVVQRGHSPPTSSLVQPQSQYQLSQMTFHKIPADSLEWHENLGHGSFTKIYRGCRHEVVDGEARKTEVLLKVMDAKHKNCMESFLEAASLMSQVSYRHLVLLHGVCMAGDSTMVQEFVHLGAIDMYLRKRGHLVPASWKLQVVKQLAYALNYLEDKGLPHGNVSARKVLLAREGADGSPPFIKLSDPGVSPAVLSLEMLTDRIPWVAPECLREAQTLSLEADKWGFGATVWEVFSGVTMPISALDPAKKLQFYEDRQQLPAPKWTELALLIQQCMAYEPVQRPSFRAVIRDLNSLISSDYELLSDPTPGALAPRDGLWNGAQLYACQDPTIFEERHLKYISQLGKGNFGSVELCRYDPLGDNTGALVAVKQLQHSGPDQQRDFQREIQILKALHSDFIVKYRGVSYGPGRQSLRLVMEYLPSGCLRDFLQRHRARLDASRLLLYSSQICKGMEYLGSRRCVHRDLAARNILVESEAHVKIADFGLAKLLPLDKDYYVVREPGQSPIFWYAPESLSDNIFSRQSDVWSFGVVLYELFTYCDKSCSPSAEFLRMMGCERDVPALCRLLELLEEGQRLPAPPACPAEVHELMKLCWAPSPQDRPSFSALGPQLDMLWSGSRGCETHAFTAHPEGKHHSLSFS
Protocol: as §1

| IC50 (JAK1 [1]) | IC50 (JAK2) | IC50 (TYK2 [2]) | IC50 (JAK1 [3]) | Kp at 8 h ([4]; CSF/plasma, read-out: CSF (ng/ml)/ Plasma (ng/ml)) | Kp at 8 h ([4]; brain/plasma, read-out: Brain (ng/ml)/ Plasma (ng/ml)) | Kp at 4 h ([5]; C57BL/6, CSF/plasma, read-out: CSF (ng/ml)/ Plasma (ng/ml)) | Kp at 4 h ([5]; C57BL/6, brain/plasma, read-out: Brain (ng/ml)/ Plasma (ng/ml)) | IC50 (TYK2 [6]) | IC50 (JAK3) | Structure (SMILES) |
| --- | --- | --- | --- | --- | --- | --- | --- | --- | --- | --- |
| < 10 nM | > 200 nM | < 100 nM |  |  |  |  |  |  |  | CCc1nc2cnc3ccoc3c2n1[C@H]1CC[C@H](CC#N)OC1 [Formula (I)] |
| < 10 nM | > 20 nM | < 10 nM | < 300 nM | > 0.15 | > 0.4 | > 0.15 | > 0.3 | < 100 nM | > 100 nM | Cc1nc2cnc3ccoc3c2n1[C@H]1CC[C@H](CC#N)CC1 [Formula (III)] |
